Measurements: ChEMBL document CHEMBL2412992, “Fluorescent ligands for adenosine receptors” (Bioorg Med Chem Lett, 2013)
Each block holds one molecule with its values, some of them ahead of it. Calls of active or inactive are those of the source. The calls are words filed in the database; no cut-off is given here.

How the values were obtained:
[1] = molecular target: T1, Adenosine receptor A1 (Homo sapiens) (UniProt P30542); experiment: Displacement of [3H]DPCPX from human adenosine A1 receptor expressed in CHO cells up to 0.1 mM after 2 hrs by scintillation counting analysis; format: cell-based
T1 sequence (whole entry): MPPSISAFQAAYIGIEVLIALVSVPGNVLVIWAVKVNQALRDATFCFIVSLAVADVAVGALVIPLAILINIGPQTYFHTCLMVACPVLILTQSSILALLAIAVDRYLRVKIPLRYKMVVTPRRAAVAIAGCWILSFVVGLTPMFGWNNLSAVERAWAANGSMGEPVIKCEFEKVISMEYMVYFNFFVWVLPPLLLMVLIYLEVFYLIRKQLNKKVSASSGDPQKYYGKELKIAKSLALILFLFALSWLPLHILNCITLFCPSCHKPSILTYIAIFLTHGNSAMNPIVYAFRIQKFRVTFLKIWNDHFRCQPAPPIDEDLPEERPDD

Adenosine receptor A1 [2] = molecular target: T2, Adenosine receptor A1 (Homo sapiens, UniProt P30542); experiment: Antagonist activity at human adenosine A1 receptor expressed in CHO cells coexpressing cAMP response element assessed as inhibition of agonist-induced response by SPAP reporter gene assay in presence of forskolin; format: functional, cell-based
T2 sequence (P30542 whole entry): T1 sequence (whole entry)

Adenosine receptor A2a [3] = molecular target: T3, Adenosine receptor A2a (Homo sapiens, UniProt P29274); experiment: Displacement of [3H]CGS21680 from adenosine A2A receptor in human striatal membranes; format: cell membranes, Striatum, Membrane
Adenosine receptor A1 [4] = molecular target: T2, Adenosine receptor A1; experiment: Displacement of [3H]DPCPX from adenosine A1 receptor in human cortical membranes; format: cell membranes
Adenosine receptor A3 [5] = molecular target: T4, Adenosine receptor A3 (Homo sapiens, UniProt P0DMS8); format: cell-based, CHO
T4 sequence (P0DMS8 whole entry): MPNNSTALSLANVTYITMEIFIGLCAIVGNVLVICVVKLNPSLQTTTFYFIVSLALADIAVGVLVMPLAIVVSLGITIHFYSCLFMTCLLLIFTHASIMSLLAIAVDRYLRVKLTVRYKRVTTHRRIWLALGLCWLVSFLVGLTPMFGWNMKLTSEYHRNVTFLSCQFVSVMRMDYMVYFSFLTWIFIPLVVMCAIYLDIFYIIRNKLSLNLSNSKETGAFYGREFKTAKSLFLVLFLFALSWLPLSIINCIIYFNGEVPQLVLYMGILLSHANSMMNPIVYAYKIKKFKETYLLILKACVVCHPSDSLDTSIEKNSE

Adenosine receptor A2a [6] = molecular target: T3, Adenosine receptor A2a; experiment: Binding affinity to human adenosine A2A receptor expressed in HEK293 cells by fluorescence polarization assay; format: cell-based
Adenosine receptor A3 [7] = molecular target: T4, Adenosine receptor A3; format: cell-based, CHO; remark: listed apart in the source
[8] = molecular target: T1, Adenosine receptor A1 (Homo sapiens); experiment: Displacement of [3H]R-PIA from human adenosine A1 receptor expressed in CHO cells at 10 uM after 60 mins by […] analysis relative to control; format: cell-based
Adenosine receptor A2a [9] = molecular target: T3, Adenosine receptor A2a; experiment: Displacement of [3H]CGS21680 from human adenosine A2A receptor expressed in HEK293 cells after 60 mins by […] analysis; format: cell-based
Adenosine receptor A3 [10] = molecular target: T4, Adenosine receptor A3
Description: Displacement of [125I]I-AB-MECA from human adenosine A3 receptor expressed in CHO cells after 90 mins by gamma counting analysis

Adenosine receptor A1 [11] = molecular target: T2, Adenosine receptor A1; experiment: Displacement of [3H]R-PIA from human adenosine A1 receptor expressed in CHO cells after 60 mins by […] analysis; format: cell-based
Adenosine receptor A3 [12] = molecular target: T4, Adenosine receptor A3; experiment: Binding affinity to human adenosine A3 receptor expressed in CHO cells by flow cytometric analysis; format: cell-based
Adenosine receptor A3 [13] = molecular target: T4, Adenosine receptor A3; experiment: Binding affinity to human adenosine A3 receptor expressed in CHO cells after 90 mins; format: cell-based
Adenosine receptor A2a [14] = molecular target: T3, Adenosine receptor A2a; experiment: Displacement of [3H]CGS21680 from human adenosine A2A receptor expressed in HEK293 cells at 10 uM after 60 mins by […] analysis relative to control; format: cell-based
Adenosine receptor A2a [15] = molecular target: T3, Adenosine receptor A2a; experiment: Competitive binding affinity to human adenosine A2A receptor expressed in HEK293 cells after 60 mins by fluorescence polarization assay in presence of MRS5346

T3 sequence (P29274 whole entry): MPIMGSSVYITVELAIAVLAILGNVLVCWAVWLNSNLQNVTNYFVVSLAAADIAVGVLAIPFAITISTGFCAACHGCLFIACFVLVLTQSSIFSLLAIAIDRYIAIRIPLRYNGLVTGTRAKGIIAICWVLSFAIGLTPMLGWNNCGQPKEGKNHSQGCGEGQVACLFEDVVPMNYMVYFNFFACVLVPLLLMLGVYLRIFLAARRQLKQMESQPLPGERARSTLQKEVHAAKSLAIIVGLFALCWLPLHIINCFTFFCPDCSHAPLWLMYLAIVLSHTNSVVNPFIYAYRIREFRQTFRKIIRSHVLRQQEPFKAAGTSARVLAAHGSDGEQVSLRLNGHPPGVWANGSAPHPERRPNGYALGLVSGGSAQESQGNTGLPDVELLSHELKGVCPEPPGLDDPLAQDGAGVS

Compound: CCNC(=O)[C@H]1O[C@@H](n2cnc3c(NCCCCNC(=O)CCCCCN4/C(=C/C=C/C=C/C5=[N+](CC)c6cc(S(=O)(=O)O)ccc6C5(C)C)C(C)(C)c5cc(S(=O)(=O)[O-])ccc54)ncnc32)[C@H](O)[C@@H]1O
- Activity [1]: inactive

Compound: N=c1ccc2c(-c3ccc(C(=O)NCCCCCCn4cc(NCCNC(=O)COc5ccc(CCCn6ncc7c6nc(N)n6nc(-c8ccco8)nc76)cc5)nn4)cc3C(=O)O)c3ccc(N)c(S(=O)(=O)O)c3oc-2c1S(=O)(=O)O
- Kd (Adenosine receptor A2a [6]): 16.5 nM

Compound: CCNC(=O)[C@H]1O[C@@H](n2cnc3c(NCCCCCCCCNC(=O)COc4ccc(/C=C/C5=[N+]6C(=Cc7ccc(-c8cccs8)n7[B-]6(F)F)C=C5)cc4)ncnc32)[C@H](O)[C@@H]1O
- Kd (Adenosine receptor A1 [2]): 14.1 nM

Compound: Cn1cc2c(nc(NCCCCCNC(=S)Nc3ccc(C4c5ccc(O)cc5OC5=CC(=O)C=CC54)c(C(=O)O)c3)n3nc(-c4ccco4)nc23)n1 (stereo unspecified)
- Ki (Adenosine receptor A3 [7]): 5620 nM
- inhibition [8]: 9%
- Ki (Adenosine receptor A2a [9]): 1780 nM

Compound: Nc1nc2ccc(Cl)cc2c2nc(-c3ccco3)nn12 [CGS-15943]
- Ki (Adenosine receptor A3 [10]): 35 nM

Compound: CCCn1c(=O)c2[nH]c(-c3ccc(OCC(=O)NCCNC(=O)CCCCCCC(=O)NCCNC(=O)CCC4=[N+]5C(=Cc6c(C)cc(C)n6[B-]5(F)F)C=C4)cc3)nc2n(CCC)c1=O
- Activity [1]: inactive

Compound: N=c1ccc2c(-c3ccc(C(=O)NCCCCCCn4cc(CCCC(=O)Nc5nc6ccc(Cl)cc6c6nc(-c7ccco7)nn56)nn4)cc3C(=O)O)c3ccc(N)c(S(=O)(=O)O)c3oc-2c1S(=O)(=O)O
- Ki (Adenosine receptor A1 [11]): 87.1 nM
- Ki (Adenosine receptor A3 [7]): 6.46 nM
- Kd (Adenosine receptor A3 [12]): 5.15 nM
- Kd (Adenosine receptor A3 [13]): 6.65 nM
- Ki (Adenosine receptor A2a [9]): 74.1 nM

Compound: Cn1cc2c(nc(NCCOCCOCCNC(=S)Nc3ccc(C4c5ccc(O)cc5OC5=CC(=O)C=CC54)c(C(=O)O)c3)n3nc(-c4ccco4)nc23)n1 (stereo unspecified)
- inhibition (Adenosine receptor A2a [14]): 30%
- Ki (Adenosine receptor A3 [7]): 9550 nM
- inhibition [8]: 0%

Compound: Cn1cc2c(nc(NNC(=S)Nc3ccc(C4c5ccc(O)cc5OC5=CC(=O)C=CC54)c(C(=O)O)c3)n3nc(-c4ccco4)nc23)n1 (stereo unspecified)
- Ki (Adenosine receptor A1 [11]): 9550 nM
- Ki (Adenosine receptor A3 [7]): 794 nM
- Ki (Adenosine receptor A2a [9]): 933 nM

Compound: OC[C@H]1O[C@@H](n2cnc3c(NC4CCCC4)ncnc32)[C@H](O)[C@@H]1O [N6-CYCLOPENTYLADENOSINE]
- Ki (Adenosine receptor A2a [15]): 814 nM

Second part, the molecule after the results:

- Kd (Adenosine receptor A1 [2]): 14.5 nM
Compound: CCNC(=O)[C@H]1O[C@@H](n2cnc3c(NCCNC(=O)COc4ccc(/C=C/C5=[N+]6C(=Cc7ccc(-c8cccs8)n7[B-]6(F)F)C=C5)cc4)ncnc32)[C@H](O)[C@@H]1O

- Ki (Adenosine receptor A2a [3]): 6760 nM
- Ki (Adenosine receptor A1 [4]): > 10000 nM
- Ki (Adenosine receptor A3 [5]): 56.2 nM
Compound: CCNC(=O)[C@H]1O[C@@H](n2cnc3c(NCCNc4ccc([N+](=O)[O-])c5nonc45)ncnc32)[C@H](O)[C@@H]1O

- Ki (Adenosine receptor A2a [3]): 5130 nM
- Ki (Adenosine receptor A1 [4]): 3550 nM
- Ki (Adenosine receptor A3 [5]): 7.41 nM
Compound: CCNC(=O)[C@H]1O[C@@H](n2cnc3c(NCCCCCCCCNc4ccc([N+](=O)[O-])c5nonc45)ncnc32)[C@H](O)[C@@H]1O

- Ki (Adenosine receptor A2a [3]): 6170 nM
- Ki (Adenosine receptor A1 [4]): > 10000 nM
- Ki (Adenosine receptor A3 [5]): 24 nM
Compound: CCNC(=O)[C@H]1O[C@@H](n2cnc3c(NCCCCCCNc4ccc([N+](=O)[O-])c5nonc45)ncnc32)[C@H](O)[C@@H]1O

- Kd (Adenosine receptor A1 [2]): 16.2 nM
Compound: CCNC(=O)[C@H]1O[C@@H](n2cnc3c(NCCCNC(=O)COc4ccc(/C=C/C5=[N+]6C(=Cc7ccc(-c8cccs8)n7[B-]6(F)F)C=C5)cc4)ncnc32)[C@H](O)[C@@H]1O
